These results are taken from ChEMBL document CHEMBL3832036, “Goodman and Gilman Ed. 12 | The Pharmaceutical Basis of Therapeutics| Table AII-I: Pharmacokinetic Data” (2011).

The Tmax is the time from dosing to the highest level. Usually Cmax stands for the highest concentration seen after dosing. What is called bioavailability is dose-corrected exposure relative to a reference, in per cent.

Data set [1] relates to Homo sapiens. The experiment in a line: Pharmacokinetic parameters for diffferent drugs or their active metabolite, following single oral or intravenous (IV) administration to subjects of different health conditions. The format is ADME, organism-based. Details: dose 50 mg, dose 10 mg, route oral. The settings on record: in vivo.
The test system of data set [2] is Homo sapiens. Description: Pharmacokinetic parameters for different drugs, or their active metabolite following multiple oral or intravenous administration to subjects of varying health conditions. The format is ADME, organism-based. More on the design: dose 30 mg, dose 135 mg, route oral. The note with it: in vivo.
Setting [3] is: iv, dosed compound id 67, dosed compound name AZATHIOPRINE, regimen Single dose, tissue Plasma.
[4] abbreviates: po, dose 10 mg, dosed compound id 63, dosed compound name BACLOFEN, gender male, regimen Single dose, tissue Plasma.
[5] abbreviates: po, dosed compound id 63, dosed compound name BACLOFEN, gender male, regimen Single dose, tissue Plasma.
[6] abbreviates: po, dosed compound id 66, dosed compound name CHLORTHALIDONE, regimen Single dose, tissue Plasma.
Where [7] appears, read: po, dosed compound id 69, dosed compound name IRBESARTAN, gender male, regimen Single dose, tissue Plasma.

`Cn1cnc([N+](=O)[O-])c1Sc1ncnc2nc[nH]c12` [AZATHIOPRINE]: in data set [1] (setting [3]), the CL amounted to 57 mL/min/kg, the Vd is 0.81 L/kg and the t1/2 turned out to be 0.16 h.

In the case of `NCC(CC(=O)O)c1ccc(Cl)cc1` (configuration not stated) [BACLOFEN], the Vd in data set [1] (other, dosed compound id 63, dosed compound name BACLOFEN, gender male, regimen Single dose, route intestinal infusion, tissue Plasma) was 0.81 L/kg. In addition, the CL in data set [1] (other, dosed compound id 63, dosed compound name BACLOFEN, gender male, regimen Single dose, route intestinal infusion, tissue Urine) was 2.72 mL/min/kg. In data set [1] (setting [4]), the Tmax turned out to be 1 h and the t1/2 was 3.75 h. For the same compound, in data set [1] (setting [5]), the Cmax was found to be 160 ng/mL and the F is on record as 70%.

Regarding `NS(=O)(=O)c1cc(C2(O)NC(=O)c3ccccc32)ccc1Cl` (configuration not stated) [CHLORTHALIDONE], the Excretion in data set [1] (po, at 50 mg, dosed compound id 66, dosed compound name CHLORTHALIDONE, regimen Single dose, tissue Urine) was determined as 65%. For the same compound, the time of peak concentration (Tmax) in data set [1] (po, dose 50 mg, dosed compound id 66, dosed compound name CHLORTHALIDONE, regimen Single dose, tissue Plasma) worked out at 13.8 h. Also, the t1/2 in data set [1] (po, dosed compound id 66, dosed compound name CHLORTHALIDONE, regimen Single dose, tissue Blood) is 47 h. In data set [1] (setting [6]), the CL came to 0.04 mL/min/kg, the Cmax came to 3700 ng/mL, the F came to 64% and the Vd turned out to be 0.14 L/kg.

For the compound `CCCCC1=NC2(CCCC2)C(=O)N1Cc1ccc(-c2ccccc2-c2nnn[nH]2)cc1` [IRBESARTAN], the Tmax in data set [1] (po, dose 50 mg, dosed compound id 69, dosed compound name IRBESARTAN, gender male, regimen Single dose, tissue Plasma) is 1.2 h. Further, in data set [1] (setting [7]), the CL is recorded as 2.12 mL/min/kg, the Cmax stood at 1300 ng/mL, the Vd is 2.9 L/kg and the bioavailability is 60 to 80%. Moreover, the t1/2 in data set [1] (setting [7]) came to 13 h. Also, the Excretion in data set [1] (po, dosed compound id 69, dosed compound name IRBESARTAN, gender male, regimen Single dose, tissue Urine) was determined as 2.2%.

In the case of `Sc1ncnc2nc[nH]c12` [MERCAPTOPURINE ANHYDROUS], the F in data set [1] (po, dosed compound id 621, dosed compound name AZATHIOPRINE, regimen Single dose, tissue Plasma) was determined as 60%. In addition, the Tmax in data set [2] (dose 135 mg, dosed compound id 621, dosed compound name AZATHIOPRINE, regimen Once daily, route oral, tissue Plasma) was 1 to 2 h. Further, the Cmax in data set [2] (dosed compound id 621, dosed compound name AZATHIOPRINE, regimen Once daily, tissue Plasma) lay in the range of 20 to 90 ng/mL.

On to `C[C@]12C=CC(=O)C=C1CC[C@@H]1[C@@H]2[C@@H](O)C[C@@]2(C)[C@H]1CC[C@]2(O)C(=O)CO` [PREDNISOLONE], for which, in data set [1] (po), the CL worked out at 1 mL/min/kg, the Excretion was 26%, the Vd turned out to be 0.42 L/kg and the t1/2 worked out at 2.2 h. Also, in data set [2], the Cmax was 458 ng/mL and the Tmax amounted to 1.5 h.
